The values below come from ChEMBL document CHEMBL1135216, “New 2-(1-adamantylcarbonyl)pyridine and 1-acetyladamantane thiosemicarbazones-thiocarbonohydrazones: cell growth inhibitory, antiviral and antimicrobial activity evaluation” (Bioorg Med Chem Lett, 2002).

In brackets after ≈: the same amount, converted by molar mass. A value given as a limit tells only on which side of the number the result lay.

Experiment [1] has as its system CCRF-CEM. Briefly: Tested for the inhibitory concentration against cell growth of human leukemic cell line CCRF-CEM. It is filed as functional.
The test system of experiment [2] is CCRF-CEM. In words: Tested for the concentration required to reduce the viability of leukemia cells by 50% against cell growth of T cell leukemia cell line CCRF-CEM using MTT assay. The format is functional. The following applies: Homo sapiens. Background: Formazan colour is commonly taken as a measure of viable cells.
Experiment [3] deals with CCRF-CEM. In words: Tested for the inhibitory concentration against cell growth of Tcell leukemic cell line CCRF-CEM using MTT assay. It is filed as functional. The following applies: Homo sapiens.
Experiment [4] deals with E6SM. In words: Tested for antiviral activity against VSV-virus in human embryonic skin muscle fibroblasts. It is filed as functional. Conditions: Muscle tissue.
Experiment [5] deals with E6SM. Briefly: Tested for antiviral activity against herpes simplex virus type 1(KOS) in E6SM cell line(human embryonic skin-muscle fibroblasts). It is filed as functional.
The subject of experiment [6] is E6SM. Briefly: Tested for antiviral activity against thymidine kinase-deficient (TK-HSV-2G) virus in E6SM cell line(human embryonic skin-muscle fibroblasts). It is filed as functional.
The test system of experiment [7] is E6SM. In words: Tested for antiviral activity against vaccinia virus in human embryonic skin muscle fibroblast. Conditions: Muscle tissue. The format is functional.
Experiment [8] concerns HeLa. Briefly: The compound was tested for antiviral activity against VSV-virus in human epithelial cells. It is filed as functional.
In experiment [9] the test system is E6SM. Briefly: Tested for cytotoxic activity in human embryonic skin muscle fibroblast (E6SM). It is filed as functional. The following applies: Muscle tissue.
For experiment [10], the system named is E6SM. In words: Antiviral activity against thymidine kinase-deficient (TK-HSV-1)virus in E6SM cell line(human embryonic skin-muscle fibroblasts). It is filed as functional.
In a further experiment the test system is Escherichia coli. In words: Tested for the antimicrobial activity against Escherichia coli ATCC 25922. It is filed as functional.
The test system of experiment [11] is HEL. In words: Tested for cytotoxic activity in human embryonic lung fibroblast (HEL). It is filed as functional.
Experiment [12] has as its system HEL. Briefly: Tested for antiviral activity against human cytomegalovirus (AD-169) in human embryonic lung fibroblasts. The format is functional.
Experiment [13] has as its system HEL. In words: Tested for antiviral activity against thymidine kinase deficient Varicella zoster virus in human embryonic lung fibroblasts. It is filed as functional.
Experiment [14] relates to HEL. Briefly: Tested for antiviral activity against thymidine kinase wild type Varicella zoster virus in human embryonic lung fibroblast. The format is functional.
Experiment [15] deals with HeLa. Briefly: Tested for antiviral activity against coxsackie-B4 virus in human epithelial cell line. It is filed as functional.
For experiment [16], the system named is HL-60. Briefly: Tested for the inhibitory concentration against cell growth of human leukemic cell line HL60. It is filed as functional.
For experiment [17], the system named is HL-60. Briefly: Tested for the concentration required to reduce the viability of leukemia cells by 50% against cell growth of HL60 acute myeloid leukemia using MTT assay. It is filed as functional. The following applies: Homo sapiens, read-out: LC50 (the source's name).
Experiment [18] concerns HL-60. In words: Tested for the inhibitory concentration against cell growth of HL60 acute myeloid leukemia using MTT assay. The format is functional. Conditions: Homo sapiens.
In experiment [19] the test system is HeLa. Briefly: Tested for cytotoxic activity in human epithelial cell line (HeLa). The format is functional.
Experiment [20] concerns HuT78. Briefly: Tested for the inhibitory concentration against cell growth of human leukemic cell line HuT78. The format is functional.
Experiment [21] relates to HuT78. Briefly: Tested for the concentration required to reduce the viability of leukemia cells by 50% against cell growth of HuT78 T lymphoma using MTT assay. It is filed as functional. Conditions: Homo sapiens.
Experiment [22] concerns HuT78. Briefly: Tested for the inhibitory concentration against cell growth of HuT78 T lymphoma using MTT assay. Conditions: Homo sapiens. It is filed as functional.
Experiment [23] concerns K562. In words: Tested for the concentration required to reduce the viability of leukemia cells by 50% against cell growth of K562 chronic myeloid leukemia using MTT assay. It is filed as functional. The following applies: Homo sapiens, read-out: LC50 (the source's name).
Experiment [24] has as its system K562. In words: Tested for the inhibitory concentration against cell growth of K562 chronic myeloid leukemia using MTT assay. The format is functional. The following applies: Homo sapiens.
Experiment [25] deals with K562. In words: Tested for the inhibitory concentration against cell growth of human leukemic cell line K562. It is filed as functional.
In the next experiment the test system is Klebsiella pneumoniae. In words: Tested for the antimicrobial activity against Klebsiella pneumoniae ATCC 13883. The format is functional.
The test system of experiment [26] is MOLT-4. In words: Tested for the inhibitory concentration against cell growth of human leukemic cell line MOLT-4. It is filed as functional.
Experiment [27] relates to MT4. Briefly: Tested for effective concentration required to protect MT-4 cells against the cytopathicity of HIV-1(IIIB). The format is functional. Conditions: Homo sapiens, read-out: LC50 (the source's name). For orientation: Protection from cytopathic effect is a common read-out in antiviral testing.
The subject of experiment [28] is MT4. In words: Tested for effective concentration required to protect MT-4 cells against the cytopathicity of HIV-2(ROD). The format is functional, cell-based. The following applies: Homo sapiens.
Experiment [29] concerns MOLT-4. In words: Tested for the concentration required to reduce the viability of leukemia cells by 50% against cell growth of T cell leukemia cell line MOLT-4 using MTT assay. The format is functional. The following applies: Homo sapiens.
In experiment [30] the test system is MOLT-4. Briefly: Tested for the inhibitory concentration against cell growth of Tcell leukemic cell line MOLT-4 using MTT assay. Conditions: Homo sapiens. The format is functional.
Experiment [31] relates to RPMI-8226. Briefly: Tested for the inhibitory concentration against cell growth of human leukemic cell line RPMI8226. The format is functional.
Experiment [32] deals with RPMI-8226. Briefly: Tested for the concentration required to reduce the viability of leukemia cells by 50% against cell growth of RPMI8226 multiple myeloma using MTT assay. It is filed as functional. The following applies: Homo sapiens, read-out: LC50 (the source's name).
Experiment [33] has as its system RPMI-8226. In words: Tested for the inhibitory concentration against cell growth of […] multiple myeloma using MTT assay. The format is functional. The following applies: Homo sapiens.
A further experiment deals with Staphylococcus aureus. Briefly: Tested for the antimicrobial activity against Staphylococcus aureus ATCC 6538. It is filed as functional.
In experiment [34] the test system is Staphylococcus epidermidis. Briefly: Tested for the antimicrobial activity against Staphylococcus epidermidis ATCC 12228. The format is functional.
In another experiment the test system is Staphylococcus hominis. Briefly: Tested for the antimicrobial activity against Staphylococcus hominis ATCC 27844. It is filed as functional.
Experiment [35] deals with Vero. Briefly: Tested for cytotoxic activity in African green monkey kidney cells (Vero). The format is functional. Conditions: Chlorocebus sabaeus.
Experiment [36] relates to Vero. Briefly: Tested for antiviral activity against Punta toro virus in African green monkey kidney cell (Vero). Conditions: Chlorocebus sabaeus. It is filed as functional.
Experiment [37] concerns Vero. In words: Tested for antiviral activity against Reo-1 virus in African green monkey kidney cell (Vero). The format is functional. The following applies: Chlorocebus sabaeus.
The test system of experiment [38] is Vero. Briefly: Tested for antiviral activity against Sindbis virus in African green monkey kidney cell (Vero). It is filed as functional. The following applies: Chlorocebus sabaeus.
In experiment [39] the test system is Vero. In words: Tested for antiviral activity against coxsackie B-4 virus in African green monkey kidney cell (Vero). The format is functional. The following applies: Chlorocebus sabaeus.
In experiment [40] the test system is Vero. In words: Tested for antiviral activity against parainfluenza virus in african green monkey kidney cell (Vero). The format is functional. The following applies: Chlorocebus sabaeus.
Experiment [41] concerns MT4. In words: Tested for cytotoxic concentration required to reduce the viability of MT-4 cells by 50%. It is filed as functional, cell-based. Conditions: Homo sapiens, read-out: EC50 (the source's name).
Experiment [42] has as its system E6SM. In words: The compound was tested for antiviral activity against thymidine kinase-deficient (TK-HSV-1)virus in E6SM cell line(human embryonic skin-muscle fibroblasts). It is filed as functional.

On to `C/C(=N/N=C(/S)N/N=C(\S)c1ccc(Cl)cc1Cl)C12CC3CC(CC(C3)C1)C2`, for which the GI50 in the experiment with CCRF-CEM [1] was found to be 5.7 µM; with HL-60 [16] it was 2.4 µM; in the experiment with HuT78 [20] it was 8.1 µM; in the experiment on K562 [25] it was 24.7 µM; in the experiment on MOLT-4 [26], 32.4 µM; with RPMI-8226 [31], 3.6 µM. Moreover, the TGI came to 100 µM with CCRF-CEM [2]; 100 µM in the experiment with CCRF-CEM [3]; 6.2 µM with HL-60 [18]; 100 µM in the experiment with HuT78 [21]; 100 µM in the experiment on HuT78 [22]; 100 µM in the experiment with K562 [24]. Moreover, the TGI with MOLT-4 [29] was 100 µM; in the experiment on MOLT-4 [30] it was 100 µM; in the experiment with RPMI-8226 [33], 29.3 µM. For the same molecule, the MIC against E6SM [4] was more than 16 µg/mL; in the experiment on E6SM [5], more than 16 µg/mL; against E6SM [6], 9.6 µg/mL (≈ 21.1 µM); against E6SM [7] it was more than 16 µg/mL; with HeLa [8], more than 3.2 µg/mL; with E6SM [10], 9.6 µg/mL (≈ 21.1 µM). The MIC was more than 2130 µg/mL in the experiment on Escherichia coli; more than 2 µg/mL against HEL [12]; more than 2 µg/mL against HEL [13]; more than 2 µg/mL against HEL [14]; more than 3.2 µg/mL against HeLa [15]; more than 2130 µg/mL against Klebsiella pneumoniae. The MIC with Staphylococcus aureus was 133 µg/mL (≈ 292 µM); in experiment [34], 133 µg/mL (≈ 292 µM); in the experiment on Staphylococcus hominis, 133 µg/mL (≈ 292 µM); against Vero [36], more than 3.2 µg/mL; against Vero [37], more than 3.2 µg/mL; with Vero [38], more than 3.2 µg/mL. Moreover, the MIC against Vero [39] and with Vero [40] was more than 3.2 µg/mL throughout. The MCC in the experiment on E6SM [9] stood at 80 µg/mL; with HEL [11], 5 µg/mL; in the experiment on HeLa [19], 16 µg/mL; with Vero [35], 16 µg/mL. For the same molecule, the CC50 in the experiment with HL-60 [17] came to 10 µM; with K562 [23] it was 100 µM; with RPMI-8226 [32], 100 µM; in the experiment on MT4 [41] it was 2.4 µM. Further, the EC50 in the experiment with MT4 [27] and with MT4 [28] was more than 2 µM throughout.

In the case of `O=c1[nH]c(=O)n([C@H]2C[C@H](O)[C@@H](CO)O2)cc1/C=C/Br` [BRIVUDINE], the MIC is more than 400 µg/mL with E6SM [4]; 0.05 µg/mL (≈ 0.15 µM) in the experiment with E6SM [5]; 80 µg/mL (≈ 240 µM) against E6SM [6]; 3.2 µg/mL (≈ 9.61 µM) against E6SM [7]; more than 400 µg/mL with HeLa [8]; 400 µg/mL (≈ 1200 µM) with E6SM [42]. Also, the MIC is more than 50 µg/mL against HEL [13]; 0.009 µg/mL (≈ 0.027 µM) in the experiment with HEL [14]; more than 400 µg/mL against HeLa [15]; more than 400 µg/mL against Vero [36]; more than 400 µg/mL with Vero [37]; more than 400 µg/mL in the experiment on Vero [38]. Further, the MIC against Vero [39] and with Vero [40] was more than 400 µg/mL in each case. The MCC in the experiment on E6SM [9] is more than 400 µg/mL; in the experiment on HEL [11], more than 50 µg/mL; in the experiment on HeLa [19] it was more than 400 µg/mL; in the experiment with Vero [35] it was more than 400 µg/mL.

Take `Nc1nc2c(ncn2COC(CO)CO)c(=O)[nH]1` [GANCICLOVIR]: the MIC is 9.6 µg/mL (≈ 37.6 µM) against E6SM [4]; 0.0064 µg/mL (≈ 0.0251 µM) in the experiment on E6SM [5]; 0.019 µg/mL (≈ 0.0744 µM) in the experiment with E6SM [6]; more than 100 µg/mL with E6SM [7]; 9.6 µg/mL (≈ 37.6 µM) against E6SM [42]; 2 µg/mL (≈ 7.84 µM) against HEL [12]. For the same molecule, the figures for the MCC with E6SM [9] and with HEL [11] were more than 100 µg/mL and more than 50 µg/mL, respectively.

For orientation: GI50 means the concentration giving 50% growth inhibition. A word on the TGI: it is the concentration at which net growth stops.
